The target of data set [1] is T1, T418D AsphyA mutant (Avena sativa, UniProt P06593, T418D).
T1 construct: After preparing purified full-length AsphyA mutants; made in house; host or cells: Pichia pastoris GS115
Nature of the data set: Binding parameters of ATP by Scatchard plot using BODIPY-FL-ATP. As to the method: (§1) To estimate dissociation constant (Kd) and the number of binding sites (n) of ATP in AsphyA proteins, an ATP analogue BODIPY-FL-ATP (BODIPY FL 2′-(or-3′)-O-(N-(2-aminoethyl)urethane) adenosine triphosphate; Molecular Probes) was used. 0.5 μM AsphyA proteins were incubated with increasing concentration of BODIPY-FL-ATP (0.5–5 μM) for 10 min at 30 °C, and free (unbound) ATP analogue was separated from the ATP analogue-protein complex by using Amicon Ultra Centrifugal Filter with MWCO of 10,000 Da for 5 min at 4,000g. The spectrophotometric absorbance was then measured to determine the BODIPY-FL-ATP concentrations within flow-through and the complex solutions by using Shimadzu UV-1800 spectrophotometer. […] The concentrations of BODIPY-FL-ATP were also double-checked by measuring the emission intensity of BODIPY fluorophore at the excitation wavelength of 500 nm and emission wavelength of 515 nm. The fluorescence of free BODIPY-FL-ATP in the absence of any protein component was used as a linear standard curve. The Kd and n values were then calculated by a Scatchard plot of r/[BODIPY-FL-ATP]free versus r, where r is the molar ratio of [BODIPY-FL-ATP]bound to [AsphyA]total.
(§2) Supplementary Figure 12. Determination of binding parameters of ATP in AsphyA proteins. The number of binding sites (n) and dissociation constant (Kd) of ATP in AsphyA proteins were determined by Scatchard plots using an ATP analogue, BODIPY-FL-ATP (BODIPY® FL 2′-(or-3′)-O-(N-(2-aminoethyl)urethane) adenosine triphosphate). The n and Kd values were calculated from the slopes (-1/Kd) and x-axis intercepts (n) of the Scatchard plot of r/[BODIPY-FL-ATP]free versus r, where r was the molar ratio of [BODIPY-FL-ATP]bound to [AsphyA]total. The n values of full-length (FL) AsphyA and photosensory core (66-610) were both calculated at around one per polypeptide, and the Kd values were calculated at approximately 0.87 × 10^-6 M for FL-AsphyA, 0.72 × 10^-6 M for […]
(§3) level, possibly due to too low ATP binding.
(§4) (1 picture or pasted object on this page, not shown here)

In data set [2] the target is T2, photosensory core of AsphyA (66-610) (Avena sativa, UniProt P06593).
T2 construct: the PAS-GAF-PHY photosensory core (66–610aa) were also cloned into pPIC3.5K; made in house; host or cells: Pichia pastoris GS115
T2 sequence (P06593 66-610): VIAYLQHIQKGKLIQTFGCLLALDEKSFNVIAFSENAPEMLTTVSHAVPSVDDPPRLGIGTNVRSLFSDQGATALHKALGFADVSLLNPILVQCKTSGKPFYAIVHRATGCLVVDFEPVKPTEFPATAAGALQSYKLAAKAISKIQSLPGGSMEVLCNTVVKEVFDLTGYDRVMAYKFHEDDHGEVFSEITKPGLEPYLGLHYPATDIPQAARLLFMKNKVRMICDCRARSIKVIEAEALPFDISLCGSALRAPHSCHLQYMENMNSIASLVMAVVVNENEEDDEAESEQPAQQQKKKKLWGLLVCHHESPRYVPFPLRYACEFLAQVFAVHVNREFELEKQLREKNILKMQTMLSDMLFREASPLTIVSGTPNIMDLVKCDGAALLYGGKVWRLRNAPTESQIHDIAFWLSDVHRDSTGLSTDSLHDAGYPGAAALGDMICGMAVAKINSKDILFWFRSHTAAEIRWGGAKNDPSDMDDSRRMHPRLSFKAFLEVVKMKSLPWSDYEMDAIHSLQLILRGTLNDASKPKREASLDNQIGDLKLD
The description is as above. Here is the method:
as §1, §2, §3, §4

The target in data set [3] is T3, K411L AsphyA mutant (Avena sativa, UniProt P06593, K411L).
T3 construct: After preparing purified full-length AsphyA mutants; made in house; host or cells: Pichia pastoris GS115
Described as above. As to the method: as §1, §2, §3, §4

Data set [4] addresses T4, D422R AsphyA mutant (Avena sativa, UniProt P06593, D422R).
T4 construct: After preparing purified full-length AsphyA mutants; made in house; host or cells: Pichia pastoris GS115
Described as above. Particulars: Scatchard plot with BODIPY-FL-ATP; result in words. As to the method:
as §1, §2, §3, §4

Data set [5] deals with T5, full-length AsphyA (Avena sativa, UniProt P06593).
T5 construct: Full-length phytochrome genes of AsPHYA; made in house; host or cells: Pichia pastoris GS115
T5 sequence (P06593 1-1129): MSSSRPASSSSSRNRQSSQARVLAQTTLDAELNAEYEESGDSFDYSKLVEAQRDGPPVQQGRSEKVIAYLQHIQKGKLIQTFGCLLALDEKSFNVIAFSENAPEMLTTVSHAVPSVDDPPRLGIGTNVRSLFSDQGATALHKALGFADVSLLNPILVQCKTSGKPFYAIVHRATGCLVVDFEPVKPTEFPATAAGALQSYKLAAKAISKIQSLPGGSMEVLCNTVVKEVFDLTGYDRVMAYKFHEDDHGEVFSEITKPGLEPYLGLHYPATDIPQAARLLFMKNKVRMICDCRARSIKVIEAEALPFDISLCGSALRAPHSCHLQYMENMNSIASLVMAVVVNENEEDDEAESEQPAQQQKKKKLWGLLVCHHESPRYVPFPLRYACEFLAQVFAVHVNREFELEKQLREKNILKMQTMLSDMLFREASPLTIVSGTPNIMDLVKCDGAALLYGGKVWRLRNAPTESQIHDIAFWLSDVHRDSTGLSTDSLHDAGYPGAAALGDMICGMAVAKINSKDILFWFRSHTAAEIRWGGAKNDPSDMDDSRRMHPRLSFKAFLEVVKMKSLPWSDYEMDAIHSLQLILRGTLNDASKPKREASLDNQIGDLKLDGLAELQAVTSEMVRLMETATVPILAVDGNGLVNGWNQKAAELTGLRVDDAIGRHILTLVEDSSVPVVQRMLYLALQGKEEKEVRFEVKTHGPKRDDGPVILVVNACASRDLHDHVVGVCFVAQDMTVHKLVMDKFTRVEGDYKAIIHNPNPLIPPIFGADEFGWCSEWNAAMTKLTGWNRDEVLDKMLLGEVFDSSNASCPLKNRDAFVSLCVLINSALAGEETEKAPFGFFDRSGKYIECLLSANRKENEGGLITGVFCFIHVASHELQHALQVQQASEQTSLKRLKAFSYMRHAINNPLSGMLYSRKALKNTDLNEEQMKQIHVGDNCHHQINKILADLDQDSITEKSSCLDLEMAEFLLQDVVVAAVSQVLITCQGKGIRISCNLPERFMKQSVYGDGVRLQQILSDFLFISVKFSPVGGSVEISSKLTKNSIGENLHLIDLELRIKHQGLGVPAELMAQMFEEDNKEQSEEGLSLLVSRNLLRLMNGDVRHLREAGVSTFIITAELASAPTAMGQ
Described as above. As to the method:
as §1, §2, §3, §4

Data set [6] deals with the molecule itself. Nature of the data set: SEC; size-exclusion chromatography of purified full-length AsphyA proteins; molecular masses estimated.
Setting [7] is: Scatchard plot with BODIPY-FL-ATP.
The mark [8] stands for this setting: Scatchard plot, 0.5 μM protein, BODIPY-FL-ATP 0.5–5 μM, 10 min at 30 °C, read-out: dissociation constant (Kd) of ATP.

Residue numbers refer to the chain shown, from its start. In names and notes the source's numbering stands.

T1 sequence (P06593 whole entry T418D): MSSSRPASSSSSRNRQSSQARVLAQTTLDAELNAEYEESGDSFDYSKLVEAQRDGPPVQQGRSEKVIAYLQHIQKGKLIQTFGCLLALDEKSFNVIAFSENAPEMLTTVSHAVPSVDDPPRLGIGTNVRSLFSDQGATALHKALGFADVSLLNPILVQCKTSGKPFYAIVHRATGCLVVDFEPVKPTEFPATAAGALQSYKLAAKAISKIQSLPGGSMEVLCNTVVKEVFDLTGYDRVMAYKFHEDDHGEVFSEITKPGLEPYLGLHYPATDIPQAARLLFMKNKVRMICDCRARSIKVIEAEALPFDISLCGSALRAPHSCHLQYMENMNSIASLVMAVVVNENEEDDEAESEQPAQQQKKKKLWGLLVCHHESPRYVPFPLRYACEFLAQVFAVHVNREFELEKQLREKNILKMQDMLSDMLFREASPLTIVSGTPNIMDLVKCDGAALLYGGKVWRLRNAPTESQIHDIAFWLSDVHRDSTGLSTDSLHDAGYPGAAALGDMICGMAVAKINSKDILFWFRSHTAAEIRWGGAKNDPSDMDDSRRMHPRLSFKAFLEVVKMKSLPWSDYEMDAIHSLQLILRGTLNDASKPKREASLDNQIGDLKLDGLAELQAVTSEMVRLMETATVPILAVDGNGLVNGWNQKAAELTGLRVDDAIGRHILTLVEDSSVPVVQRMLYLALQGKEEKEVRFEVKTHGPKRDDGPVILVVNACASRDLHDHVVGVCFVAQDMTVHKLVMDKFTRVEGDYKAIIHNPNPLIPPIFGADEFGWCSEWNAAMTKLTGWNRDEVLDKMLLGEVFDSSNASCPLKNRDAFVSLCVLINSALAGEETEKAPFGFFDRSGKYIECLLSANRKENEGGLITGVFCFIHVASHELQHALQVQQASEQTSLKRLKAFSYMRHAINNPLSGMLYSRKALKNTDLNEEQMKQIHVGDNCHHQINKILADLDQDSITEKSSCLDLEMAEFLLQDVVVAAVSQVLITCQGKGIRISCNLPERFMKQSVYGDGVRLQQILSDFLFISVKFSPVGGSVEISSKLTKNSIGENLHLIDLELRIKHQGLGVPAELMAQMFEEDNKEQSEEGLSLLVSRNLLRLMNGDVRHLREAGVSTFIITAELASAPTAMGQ
T3 sequence (P06593 whole entry K411L): as the sequence (P06593 whole entry T418D) above, with K411L, D418T counted along it
T4 sequence (P06593 whole entry D422R): as the sequence (P06593 whole entry T418D) above, with D418T, D422R counted along it

The term Kd denotes the concentration at which binding is half-saturated. Consider `CC1=CC(C)=[N+]2C1=Cc1ccc(CCC(=O)NCCNC(=O)O[C@H]3[C@@H](O)[C@H](n4cnc5c(N)ncnc54)O[C@@H]3COP(=O)(O)OP(=O)(O)OP(=O)(O)O)n1[B-]2(F)F` [BODIPY-FL-ATP, BODIPY FL 2′-(or-3′)-O-(N-(2-aminoethyl)urethane) adenosine triphosphate], for which the Kd in data set [1] is approximately 4760 nM; in data set [2] (setting [8]) it was 720 nM; in data set [3], approximately 1320 nM; in data set [5] (setting [8]), approximately 870 nM. For the same molecule, the “number of binding sites (n) of ATP” value in data set [2] (setting [7]) and in data set [5] (setting [7]) was “approximately one” throughout. Moreover, in data set [4], the “dissociation constant (Kd) of ATP” value is recorded as “unable to obtain the Kd value”.

B1: AsphyA T418D, full length (natural protein, Avena sativa, UniProt P06593 1-1129, looked up)
chain: T5 sequence (P06593 1-1129) with T418D
modifications: phycocyanobilin chromophore assembled
notes: Avena sativa phytochrome A, full length, with T418D; source: phycocyanobilin added in vitro
As usually defined, the stoichiometry N is the number of molecules, sites or subunits per partner or assembly. As for B1, the “stoichiometry N” value in data set [6] is 2.

These data come from PMC4869175, “Evidence that phytochrome functions as a protein kinase in plant light signalling” (Nature Communications, 2016).
